The values that follow come from US20150174108A1, “METHOD OF WEIGHT REDUCTION” (priority 2012, published 2015).

“Also recorded” adds a separate entry of the source.

Holding throughout (format): in vivo, human
The nature of assay [1]: 24 week randomised placebo-controlled double-blind clinical trial: HbA1c. The note with it: for ΔHbA1c Week 24, Mean ± SD / ΔHbA1c Week 24, Median (range): change from baseline (Day 0) to Week 24; for HbA1c Week 24, Mean ± SD / HbA1c Week 24, Median (range): type 2 diabetes patients, methazolamide 40 mg b.i.d. How it is done:
(§1) The safety and efficacy of methazolamide (40 mg administered twice daily) as a potential treatment for type 2 diabetes were evaluated in a 24 week, randomised, placebo-controlled double-blind clinical trial. The primary efficacy endpoint for the clinical trial was a reduction in HbA1c (ΔHbA1c) from baseline with methazolamide, relative to placebo, after 24 weeks of treatment. Secondary efficacy endpoints included reduction in body weight and improvements in cardiovascular measures such as blood pressure. The primary safety measurement was the effect of methazolamide, compared to placebo, on venous blood gas parameters; a measure of acidosis.
(§2) The clinical trial initially enrolled type 2 diabetes patients who were not treated with any anti-diabetic agent prior to entry into the trial (NAIVE) The trial was expanded to include participants who had been treated with metformin for at least 3 months and were on a stable metformin dose for at least 8 weeks prior to entering the trial (MET). The metformin dose was not altered throughout the trial.
(§3) Participants randomized into the clinical trial were administered either daily doses of methazolamide (40 mg b.i.d.) or placebo for 24 weeks. Methazolamide was taken as 1×30 mg capsule and 1×10 mg capsule per dose at breakfast and dinner. Placebo (microcrystalline cellulose) was administered in identical presentation. After an initial randomization visit to the clinic (Day 0), participants returned to the clinic at weeks 1, 2, 4, 8, 12, 18 and 24 for physical examinations, laboratory analyses, body composition measures, evaluation of glycemic parameters (fasting blood glucose, fasting insulin, HbA1c) and measurement of venous blood gas analysis.
(§4) Mean changes in body weight over time are depicted in FIG. 1.

Assay [2] in a line: 24 week randomised placebo-controlled double-blind clinical trial: body weight. The note with it: for ΔBW Week 24, Mean ± SD / ΔBW Week 24, Median (range): change from baseline (Day 0) to Week 24; for BW Week 24, Mean ± SD / BW Week 24, Median (range): type 2 diabetes patients; for body weight change over the study: metformin-treated patients who received placebo. How it is done:
as §1, §2, §3, §4
Thus an unexpected and selective effect of methazolamide on the metformin-treated patients was observed.

Assay [3] can be described thus: 24 week randomised placebo-controlled double-blind clinical trial: body mass index. The note with it: for ΔBMI Week 24, Mean ± SD / ΔBMI Week 24, Median (range): change from baseline (Day 0) to Week 24; for BMI Week 24, Mean ± SD / BMI Week 24, Median (range): type 2 diabetes patients. How it is done: as §1, §2, §3, §4
The mark [4] stands for this setting: difference to the matching placebo group, Week 24.

Turning to `CC(=O)/N=c1/sc(S(N)(=O)=O)nn1C` [methazolamide], in assay [1], the “ΔHbA1c Week 24, Mean ± SD” value is −0.26 ± 0.72%; the “ΔHbA1c Week 24, Median (range)” value is −0.3 (−2.1, +0.8) %; the “HbA1c Week 24, Mean ± SD” value amounted to 6.88 ± 0.63%; the “HbA1c Week 24, Median (range)” value is reported as 7.0 (6.1, 8.0) %. In assay [1] (setting [4]), the “ΔHbA1c Week 24, MTZ − Placebo” value is recorded as −0.1%. In assay [2] (Naïve patients not using metformin, 24 weeks), the “effect on body weight versus placebo” value was “no differences were observed; also recorded: No such additional effect”. Besides, in assay [2], the “ΔBW Week 24, Mean ± SD” value was -2.3 ± 2.4 kg; the “ΔBW Week 24, Median (range)” value is −1.8 (−9.8, +1.3) kg; the “BW Week 24, Mean ± SD” value was 90.7 ± 14.0 kg; the “BW Week 24, Median (range)” value is listed as 95.3 (63.3, 106.0) kg. The “ΔBW Week 24, MTZ − Placebo” value in assay [2] (setting [4]) was “+0.8 kg”. For the same molecule, the “average body weight lost over the 24 week period” value in assay [2] (metformin-treated patients further treated with methazolamide) turned out to be 2.2 kg. For the same molecule, the “body weight lost as share of starting body weight” value in assay [2] (metformin-treated patients further treated with methazolamide, 24 weeks) is reported as 2%. Besides, in assay [3], the “ΔBMI Week 24, Mean ± SD” value is given as −0.77 ± 0.79 kg/m^2; the “ΔBMI Week 24, Median (range)” value is −0.6 (−3.1, +0.5) kg/m^2; the “BMI Week 24, Mean ± SD” value was found to be 31.5 ± 5.1 kg/m^2; the “BMI Week 24, Median (range)” value is 32.0 (24.7-39.0) kg/m^2. For the same molecule, the “ΔBMI Week 24, MTZ − Placebo” value in assay [3] (setting [4]) is “+0.4 kg/m^2”.

As for `CN(C)C(=N)NC(=N)N` [Placebo + Met, metformin], in assay [1], the “ΔHbA1c Week 24, Mean ± SD” value was −0.04 ± 0.71%; the “ΔHbA1c Week 24, Median (range)” value is −0.2 (−0.9, +1.4) %; the “HbA1c Week 24, Mean ± SD” value stood at 7.50 ± 0.84%; the “HbA1c Week 24, Median (range)” value is on record as 7.3 (6.6, 9.8) %. In assay [2], the “ΔBW Week 24, Mean ± SD” value is -0.3 ± 1.7 kg; the “ΔBW Week 24, Median (range)” value is listed as −0.5 (−2.8, +3.9) kg; the “BW Week 24, Mean ± SD” value was found to be 90.3 ± 15.9 kg; the “BW Week 24, Median (range)” value is on record as 87.6 (68.5, 133.6) kg. The “body weight change over the study” value in assay [2] (24 weeks) was “largely stable body weight”. Further, the “body weight change over the study” value in assay [2] (24 weeks, listed as metformin and placebo) is recorded as “did not significantly change”. Further, in assay [3], the “ΔBMI Week 24, Mean ± SD” value is −0.06 ± 0.58 kg/m^2; the “ΔBMI Week 24, Median (range)” value is given as −0.2 (−0.8, +1.5) kg/m^2; the “BMI Week 24, Mean ± SD” value is given as 29.7 ± 4.7 kg/m^2; the “BMI Week 24, Median (range)” value is recorded as 29.1 (23.6-39.5) kg/m^2.
